From the NIST ThermoML archive (doi:10.1016/j.jct.2017.03.040)

Assay: mn = molality of the nth substance listed, in mol/kg
Settings: 100 kPa, Liquid; for speed of sound: Frequency=3 MHz, Single path-length method; for mass density: Vibrating tube method

CC(=O)N[C@@H](CS)C(=O)O [N-acetyl-L-cysteine] + O
Settings	mass density, 288.15 K [kg/m3]	mass density, 298.15 K [kg/m3]	mass density, 308.15 K [kg/m3]	mass density, 318.15 K [kg/m3]	speed of sound, 288.15 K [m/s]	speed of sound, 298.15 K [m/s]	speed of sound, 308.15 K [m/s]	speed of sound, 318.15 K [m/s]
m1 = 0.09902	1003.53	1001.37	998.26	994.33	1472.9	1501.8	1523.8	1539.8
m1 = 0.1981	1007.96	1005.7	1002.49	998.44	1479.4	1507	1527.9	1543.2
m1 = 0.2976	1012.41	1010.05	1006.74	1002.57	1485.8	1512.3	1532.1	1546.7
m1 = 0.397	1016.85	1014.39	1010.98	1006.7	1492.3	1517.5	1536.3	1550.2
m1 = 0.4992	1021.42	1018.86	1015.35	1010.94	1498.9	1522.9	1540.6	1553.8
m1 = 0.5991	1025.88	1023.22	1019.61	1015.09	1505.4	1528.2	1544.8	1557.3
m1 = 0.6903	1029.96	1027.21	1023.51	1018.87	1511.3	1533	1548.6	1560.5
